# What was measured:
# [1] = Stability in blood plasma, monkey; type: in vitro ADME; conditions: 1 μM, 37° C.
# Description: (§1) Compound 1 at a concentration of 1 μM was incubated for 24 hours in the blood plasma of human and various animal species (rats, mice, guinea pigs, rabbits, horses, dogs, bull, pygmy hogs) at 37° C. Aliquots were taken at time points of 0, 0.25, 1, 2, 4, 8 and 24 hours. In the case of blood plasma of rabbits and monkeys, Compound 1 was incubated for 4 hours, and aliquots were taken at time points 0, 0.25, 1, 4. After the protein precipitation with acetonitrile, samples were analyzed by HPLC-MS/MS to determine the concentration of Compound 1. Verapamil was used as a stable control.
# [2] = Stability in blood plasma, pygmy hog; type: in vitro ADME; conditions: 1 μM, 37° C.
# Description: as §1
# [3] = target: T1, melanocortin receptor MC4R (Homo sapiens, UniProt P32245); assay: Activity of melanocortin receptors MC4R, CHO cells; type: cell-based; conditions: antagonist, NDP-alpha-MSH agonist (30 nM)
# T1 construct: expressed in transfected cells; host or cells: CHO cells
# T1 sequence (P32245 whole entry): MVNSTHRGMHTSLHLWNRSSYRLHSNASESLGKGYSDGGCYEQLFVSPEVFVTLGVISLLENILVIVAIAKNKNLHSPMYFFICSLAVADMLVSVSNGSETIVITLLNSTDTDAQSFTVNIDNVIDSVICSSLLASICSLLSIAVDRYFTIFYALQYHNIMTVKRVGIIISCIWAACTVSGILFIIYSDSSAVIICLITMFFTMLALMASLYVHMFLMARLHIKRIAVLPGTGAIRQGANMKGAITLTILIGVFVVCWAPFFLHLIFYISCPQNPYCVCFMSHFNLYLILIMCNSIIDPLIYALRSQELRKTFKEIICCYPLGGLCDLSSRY
# Description: Compound 1 was dissolved in DMSO to a concentration of 100 mM; then a stock solution was serially diluted with DMSO. The maximum starting concentration of the substance is 100 μM. The effect was determined at 5 concentrations of the tested compounds, each concentration was studied twice. CHO cells expressing a melanocortin receptor MC4R were used in the experiment, these cells, after preincubation with a NDP-alpha-MSH agonist (30 nM), were incubated with the test compound. The activity of receptors was determined according to the intracellular calcium concentration by the homogeneous time resolved fluorescence spectroscopy.
# indomethacin colitis = assay: Model of colitis induced by indomethacin; type: in vivo, male Wistar rats; conditions: 100 mg/kg; day 4; M ± m, n = 10
# Description: The study was performed on male Wistar rats, which were subcutaneously injected with an indomethacin solution in a dose of 9 mg/kg for two days running to induce colitis. The injection solution was prepared as follows: first, indomethacin was dissolved in 100% ethanol, then it was diluted in 5% NaHCO3 solution. On the 4th day after euthanasia, the stomach and intestine were removed from the animals in the CO2 chamber, then the caecum was excised, 10 cm from the ileum and large intestine was cut off, and 5 cm—from the caecum, to assess gross lesions (J Ethnopharmacol. 2004 February; 90(2-3): 195-204).
# [4] = Chronic (90-day) oral administration, body weight of rabbits; type: in vivo, Chinchilla rabbits; conditions: for period in which the lag in body weight gain was observed: female rabbits, daily intragastric
# Description: The effect of 90-day, oral administration of Compound 1 in doses of 1.5 mg/kg, 7.5 mg/kg and 15 mg/kg on the body weight of male and female Chinchilla rabbits was studied.
# [5] = Pharmacokinetics in blood plasma after oral administration; type: in vivo; conditions: rats, 3 mg/kg, 24 hours sampling, HPLC-MS/MS, limit of quantitation 1 ng/ml
# Description: To confirm low systemic availability of Compound 1, the study pharmacokinetics and bioavailability of Compound 1 after oral administration to rats in a dose of 3 mg/kg was conducted. Sampling of blood from animals was performed at specified time points for 24 hours after the drug administration. The content of Compound 1 in plasma samples was analyzed by HPLC-MS/MS, the limit of quantitation was 1 ng/ml.
# [6] = target: T2, tachykinin receptor type 1 (NK1R) (Homo sapiens, UniProt P25103); assay: Activity of tachykinin receptor type 1 (NK1R), intracellular calcium, U373 cells; type: cell-based; conditions: antagonist, [Sar9, Met(O2)11]-SP (1 nM)
# T2 construct: endogenous in cells; host or cells: U373 cells
# T2 sequence (P25103 whole entry): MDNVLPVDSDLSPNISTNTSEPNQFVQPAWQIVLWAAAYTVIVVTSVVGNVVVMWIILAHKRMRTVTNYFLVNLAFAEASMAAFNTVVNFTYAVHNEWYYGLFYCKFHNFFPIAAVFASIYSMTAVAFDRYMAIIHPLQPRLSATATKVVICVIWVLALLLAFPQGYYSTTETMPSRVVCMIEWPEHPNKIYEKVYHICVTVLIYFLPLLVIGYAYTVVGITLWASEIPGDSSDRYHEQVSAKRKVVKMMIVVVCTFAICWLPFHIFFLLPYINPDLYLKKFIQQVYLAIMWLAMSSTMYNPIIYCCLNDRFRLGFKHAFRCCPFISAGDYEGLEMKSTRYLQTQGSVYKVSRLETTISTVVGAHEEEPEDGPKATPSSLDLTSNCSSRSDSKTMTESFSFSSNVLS
# Description: Compound 1 dissolved in DMSO to a concentration of 100 mM; then a stock solution was serially diluted with DMSO. The maximum starting concentration of the substance is 100 μM. The effect was determined at 5 concentrations of the tested compounds, each concentration was studied twice. U373 cells expressing NK1R were used in the experiment, said cells, after the preincubation with an [Sar9, Met(O2)11]-SP (1 nM) […], were incubated with Compound 1. The activity of receptors was determined according to the intracellular calcium concentration by the fluorescence spectroscopy (Glia. 1992; 6(2):89-95).
# NF-kB signaling pathway = assay: Activity of NF-kB signaling pathway, Jurkat lacZ reporter; type: cell-based; conditions: Homo sapiens; inhibitor; Jurkat T lymphocytes, β-galactosidase reporter, substrate FDG
# [7] = system: motility of the gastrointestinal tract; assay: Model of irritable bowel syndrome: motility of the gastrointestinal tract (activated carbon); type: in vivo, nonlinear male mice
# Description: The effect on the motility of the gastrointestinal tract was studied on a model of irritable bowel syndrome in nonlinear male mice weighing 24-30 g. The animals were intragastrically injected with a solution of activated carbon (50 mg/ml, in a volume of 10 ml/kg) and the speed (in minutes) of the movement of activated coal through the intestines of animals. The compounds under study were intragastrically administered once 1 hour before the introduction of activated carbon. Drotaverine (6.7 mg/kg), Buscopan (3 mg/kg) and Trimedat (33 mg/kg) were used as reference drugs.
# [8] = system: diarrhea induced by castor oil; assay: Mouse model of diarrhea induced by castor oil; type: in vivo, Balb/c mice
# Description: Balb/c mice, which starved for 24 hours, were given castor oil intragastrically. Then the animals were encaged into individual cages with a bottom covered with white paper, and time before the onset of diarrhea was noted. The observation time is 4 hours (J Pharm Pharmacol. 2015 February; 67(2):244-54).
# [9] = Stability in blood plasma, rabbit; type: in vitro ADME; conditions: for Content, % from the initial, Mean (n = 2): rabbit blood plasma, 1 μM, 37° C.
# Description: as §1
# [10] = 90-day oral, 1.5, 7.5 and 15 mg/kg, male and female rabbits
smiles,measurement,setting,value
"O=C(Cc1ccc(O)cc1)N[C@@H](Cc1ccccc1)C(=O)OCc1ccccc1 [Compound 1, benzyl (2S)-2-[2-(4-hydroxyphenyl)acetamido]-3-phenylpropanoate]","Content, % from the initial, Mean (n = 2)",[1]; 0 hour,100%
same,"Content, % from the initial, Mean (n = 2)",[1]; 0.25 hour,38.3%
same,"Content, % from the initial, Mean (n = 2)",[1]; 1 hour,1.69%
same,"Content, % from the initial, Mean (n = 2)",[1]; 4 hour,0.00%
same,"Content, % from the initial, Mean (n = 2)",[2]; 0 hour,100%
same,"Content, % from the initial, Mean (n = 2)",[2]; 0.25 hour,92.6%
same,"Content, % from the initial, Mean (n = 2)",[2]; 1 hour,61.8%
same,"Content, % from the initial, Mean (n = 2)",[2]; 2 hour,35.9%
same,"Content, % from the initial, Mean (n = 2)",[2]; 4 hour (so in the source),2.68%
same,"Content, % from the initial, Mean (n = 2)",[2]; time cell empty (last line),0.15%
same,"Content, % from the initial, Mean (n = 2)",[2]; time cell empty (line after 2 hour),15.9%
same,IC50,[3],7.6 µM
same,"Macroscopic assessment of the lesion, Caecum",indomethacin colitis,0.4 ± 0.2 points
same,"Macroscopic assessment of the lesion, Ileum",indomethacin colitis,0.6 ± 0.3& points
same,"Macroscopic assessment of the lesion, Large intestine",indomethacin colitis,0.2 ± 0.1& points
same,"Macroscopic assessment of the lesion, Overall assessment",indomethacin colitis,1.2 ± 0.4*& points
same,"general condition, appearance, and mobility",[4]; [10],satisfactory and did not differ in the experimental and control groups
same,weight gain compared with parallel controls,[4]; [10],somewhat lagging behind in weight gain
same,feed and water intake,[4]; accompanying the decrease in body weight gain,decrease in feed and water intake
same,period in which the lag in body weight gain was observed,[4]; 7.5 mg/kg,"practically, during the entire period of the drug administration"
same,period in which the lag in body weight gain was observed,[4]; 15 mg/kg,"practically, during the entire period of the drug administration"
same,dynamics of the body weight in the recovery period,"[4]; recovery period, control versus experimental animals",no differences in the dynamics of the body weight
same,content in blood plasma after oral administration,[5],not detected
same,IC50,[6],4.1 µM
same,IC50,NF-kB signaling pathway,9.9 µM
same,The evacuation speed of activated carbon,[7]; 0.5 mg/kg once intragastrically 1 hour before activated carbon,89.45 ± 1.9 min
same,The evacuation speed of activated carbon,[7]; 1.5 mg/kg once intragastrically 1 hour before activated carbon,104.25 ± 5.49 min
same,The evacuation speed of activated carbon,[7]; 5 mg/kg once intragastrically 1 hour before activated carbon,107.67 ± 3.07 min
same,The evacuation speed of activated carbon,[7]; 10 mg/kg once intragastrically 1 hour before activated carbon,126.6 ± 3.66 min
same,The evacuation speed of activated carbon,[7]; 15 mg/kg once intragastrically 1 hour before activated carbon,123.13 ± 5.27 min
same,The evacuation speed of activated carbon,[7]; 50 mg/kg once intragastrically 1 hour before activated carbon,129.13 ± 3.19 min
same,The evacuation speed of activated carbon,[7]; 150 mg/kg once intragastrically 1 hour before activated carbon,135.63 ± 2.87 min
same,increase of the evacuation time of activated carbon,[7]; summary of table 7,2 times
same,The time of onset of diarrhea,"[8]; 50 mg/kg, M ± m, n = 10, observation 4 hours",42.00 ± 3.43& min
same,increase of the time to the onset of diarrhea,[8]; summary of Table 6,2 times
same,hydrolysis in the blood plasma (in words),"[9]; blood plasma of rabbits, after 15 minutes",almost completely hydrolyzed
same,"Content, % from the initial, Mean (n = 2)",[9]; 0 hour,100%
same,"Content, % from the initial, Mean (n = 2)",[9]; 0.25 hour,0.00%
same,"Content, % from the initial, Mean (n = 2)",[9]; 1 hour,0.00%
same,"Content, % from the initial, Mean (n = 2)",[9]; 4 hour,0.00%

# Reference: US11584709B2, “Multitarget drug for treating diseases in mammals” (“PHARMENTERPRISES EURASIA” LIMITED LIABILITY COMPANY, priority 2017, dated 2023)
